Reference: US20180228743A1, “COMPOUNDS AND METHODS OF PROMOTING MYELINATION” (Case Western Reserve University, priority 2016, published 2018)
Where a name gives a salt, the structure may show the parent alone. Read-outs that look alike come from different tables or passages of the source.

What was measured:
EpiSC-derived OPCs [1] = experiment: High-throughput screening of 3,000 bioactive small molecules for MBP+ oligodendrocyte formation from OPCs; assay type: cell-based, mouse; settings: 72 h; for % 0ligos: MBP+ oligodendrocytes; for fold induction at 2 µM: Mus musculus, read-out: fold-change in % MBP + oligodendrocytes
Text: Plates were imaged on the Operetta High Content Imaging and Analysis system (PerkinElmer) and a set of 6 fields captured from each well resulting in an average of 1200 cells being scored per well. Analysis (PerkinElmer Harmony and Columbus software) began by identifying intact nuclei stained by DAPI; that is, those traced nuclei that were larger than 300 μm^2 in surface area. Each traced nucleus region was then expanded by 50% and cross-referenced with the […] (MBP) stain to identify oligodendrocyte nuclei, and from this the percentage of oligodendrocytes was calculated. In some experiments, the total process length of MBP+ oligodendrocytes was calculated as previously described.
EpiSC-derived OPCs were grown and expanded in poly-ornithine and laminin-coated flasks before harvesting for plating. Cells were dispensed in differentiation media supplemented with Noggin (R&D Systems; 100 ng/ml), Neurotrophin 3 (R&D Systems; 10 ng/ml), cAMP (Sigma; 50 μM), and IGF-1 (R&D Systems; 100 ng/ml)) using a Biotek EL406 Microplate Washer Dispenser (Biotek) equipped with 5 μL dispense cassette (Biotek), into poly-D-lysine/laminin (Sigma, L2020; 4 μg/ml)-coated sterile, 384-well, CellCarrier ultra plates (PerkinElmer), to a final density of 12,500 cells per well and allowed to attach for 45 min before addition of drug. A 3 mM stock of bioactive compound library in dimethylsulphoxide (DMSO) were prepared in an Abgene storage 384-well plate (ThermoFisher Scientific; AB1055). These were added to assay plates using a 50 nL solid pin tool attached to Janus automated workstation (Perkin Elmer), resulting in a final screening concentration of 2 μM. Cells were incubated at 37° C. for 1 hour and then T3 (Sigma; 40 ng/ml) was added to all wells except negative controls, to which FGF (20 ng/ml) was added instead. Negative controls and T3-alone were included in each assay plate. After incubation at 37° C. for 72 h, cells were fixed, washed and stained similar to 96-well OPC assay protocol, although all the washing steps were performed using a Biotek EL406 Microplate Washer Dispenser (Biotek) equipped with a 96-well aspiration manifold. Cells were stained with DAPI (Sigma; 1 μg/ml) and MBP antibody (Abcam, ab7349; 1:100). Plates were imaged on the Operetta High Content Imaging and Analysis system (PerkinElmer) and a set of 4 fields captured from each well resulting in an average of 700 cells being scored per well. Analysis was performed as in High-Content Imaging and Analysis, above. All plates for the primary screen were processed and analyzed simultaneously to minimize variability. Molecules causing more than 20% reduction in nuclear count relative to DMSO control wells were removed from consideration, and hits were called on the basis of largest fold-increase in percentage of MBP+ oligodendrocytes relative to DMSO controls within the same plate.

OPCs = experiment: GC/MS-based sterol profiling in OPCs; assay type: cell-based, mouse; settings: 24 h
EpiSC-derived OPCs [2] = experiment: In vitro phenotypic screening of OPCs (MBP+ oligodendrocytes at 72 h); assay type: cell-based, mouse; settings: 72 h
rat CYP51 = target: T1, rat CYP51 (Rattus norvegicus, UniProt Q64654); experiment: CYP51 enzymatic assay (LC/MS quantitation of FF-MAS); assay type: biochemical
T1 construct: purchased Cypex, Inc
T1 sequence (Q64654 1-503): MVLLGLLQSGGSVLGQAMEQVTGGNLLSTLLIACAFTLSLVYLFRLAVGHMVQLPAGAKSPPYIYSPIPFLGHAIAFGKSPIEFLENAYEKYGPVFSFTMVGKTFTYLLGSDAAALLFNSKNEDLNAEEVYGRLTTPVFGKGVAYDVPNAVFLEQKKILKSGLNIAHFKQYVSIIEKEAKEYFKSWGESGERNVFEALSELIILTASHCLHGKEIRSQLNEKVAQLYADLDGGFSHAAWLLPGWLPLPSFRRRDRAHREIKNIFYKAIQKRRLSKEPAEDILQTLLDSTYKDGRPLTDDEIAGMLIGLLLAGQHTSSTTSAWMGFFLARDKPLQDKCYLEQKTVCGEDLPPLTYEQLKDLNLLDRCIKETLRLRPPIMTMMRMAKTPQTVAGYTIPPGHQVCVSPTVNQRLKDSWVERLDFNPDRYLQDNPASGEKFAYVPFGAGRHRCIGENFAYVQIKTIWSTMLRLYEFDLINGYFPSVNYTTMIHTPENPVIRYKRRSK
Experimental: Finally, 15 μl of each reaction/isopropanol mixture was injected onto a SCIEX Triple Quad 6500 LC-MS/MS system using an APCI ion source in positive ion mode with a Shimadzu UFLC-20AD HPLC and a Phenomenex

[3] = 2 μM, relative to DMSO controls of the same plate

In the case of `c1ccc(-c2ccc(C(c3ccccc3)n3ccnc3)cc2)cc1` (centres unmarked) [Bifonazole], the “cell viability (% relative to DMS0)” value (EpiSC-derived OPCs [1]; 2 μM) is reported as 123.69%, the “% 0ligos” value (EpiSC-derived OPCs [1]; 2 μM) is reported as 40.98% and the fold induction at 2 µM (EpiSC-derived OPCs [1]; [3]) is reported as 4.59.

With `C[C@]12CC[C@@H]3c4ccc(O)cc4C[C@@H](CCCCCCCCC[S+]([O-])CCCC(F)(F)C(F)(F)F)[C@H]3[C@@H]1CC[C@@H]2O` (some centres unmarked) [Fulvestrant] the “cell viability (% relative to DMS0)” value (EpiSC-derived OPCs [1]; 2 μM) was 139.42%, the “% 0ligos” value (EpiSC-derived OPCs [1]; 2 μM) was 18.21% and the fold induction at 2 µM (EpiSC-derived OPCs [1]; [3]) was 3.83. The “enzyme inhibited in OPCs as indicated by sterol profile” value (OPCs) was “targeted CYP51”.

In the case of `O=C(c1ccc(OCCN2CCCCC2)cc1)c1c(-c2ccc(O)cc2)sc2cc(O)ccc12` [Raloxifene HCl], the “cell viability (% relative to DMS0)” value (EpiSC-derived OPCs [1]; 2 μM, HCl) is reported as 114.37%, the “cell viability (% relative to DMS0)” value (EpiSC-derived OPCs [1]; 2 μM, listed as Raloxifene hydrochloride, HCl) is reported as 126.07% and the fold induction at 2 µM (EpiSC-derived OPCs [1]; [3]) is reported as 4.8.

With `CCCCOc1ccc(OCCCN2CCOCC2)cc1` [Pramoxine HCl] the “cell viability (% relative to DMS0)” value (EpiSC-derived OPCs [1]; 2 μM) was 113.08%, the “% 0ligos” value (EpiSC-derived OPCs [1]; 2 μM) was 32.98% and the fold induction at 2 µM (EpiSC-derived OPCs [1]; [3]) was 3.89.

In the case of `CC(C)=CCC[C@@H](C)[C@H]1CC[C@@]2(C)C3=C(CC[C@]12C)[C@@]1(C)CC[C@H](O)C(C)(C)[C@@H]1CC3` [lanosterol, Lanosterol], the “formation of MBP+ oligodendrocytes from OPCs” value (EpiSC-derived OPCs [2]) is reported as “enhanced formation of MBP+ oligodendrocytes in a dose-responsive fashion”.

For `Cc1nnc(C(=O)NC(C)(C)c2nc(C(=O)NCc3ccc(F)cc3)c(O)c(=O)n2C)o1` [Raltegravir (MK-0518), Raltegravir], the “cell viability (% relative to DMS0)” value (EpiSC-derived OPCs [1]; 2 μM) was 115.85%, the “% 0ligos” value (EpiSC-derived OPCs [1]; 2 μM) was 38.02% and the fold induction at 2 µM (EpiSC-derived OPCs [1]) was 4.26.

`N=C(N)c1ccc(OCCCCCOc2ccc(C(=N)N)cc2)cc1` [Pentamidine isethionate] was tested, and the “cell viability (% relative to DMS0)” value (EpiSC-derived OPCs [1]; 2 μM) was 108.75%, the “% 0ligos” value (EpiSC-derived OPCs [1]; 2 μM) was 41.29% and the fold induction at 2 µM (EpiSC-derived OPCs [1]; [3]) was 4.42.

With lsoconazole nitrate the “% 0ligos” value (EpiSC-derived OPCs [1]; 2 μM) was 53.25% and the “fold-change in % MBP + oligodendrocytes” value (EpiSC-derived OPCs [1]; [3]) was 6.70.

For `CC(=O)N1CCN(c2ccc(OC[C@@H]3CO[C@](Cn4ccnc4)(c4ccc(Cl)cc4Cl)O3)cc2)CC1` (stereo in doubt) [R-trans-Ketoconazole], the “inhibition of mammalian CYP51 in vitro” value (rat CYP51) was “strikingly less effective at inhibiting mammalian CYP51”.

With Varenicline tartrate the “cell viability (% relative to DMS0)” value (EpiSC-derived OPCs [1]; 2 μM) was 144.02%, the “% 0ligos” value (EpiSC-derived OPCs [1]; 2 μM) was 22.86% and the “fold-change in % MBP + oligodendrocytes” value (EpiSC-derived OPCs [1]; [3]) was 4.81.

With `Cc1cc(NC(=O)Nc2ccc(N(C)C)cc2)c2cc(F)cc(F)c2n1` [SB408124] the “cell viability (% relative to DMS0)” value (EpiSC-derived OPCs [1]; 2 μM) was 106.19%, the “% 0ligos” value (EpiSC-derived OPCs [1]; 2 μM) was 39.63% and the “fold-change in % MBP + oligodendrocytes” value (EpiSC-derived OPCs [1]; [3]) was 4.44.

In the case of `O=C1Cc2cc(CCN3CCN(c4nsc5ccccc45)CC3)c(Cl)cc2N1` [Ziprasidone HCl], the “% 0ligos” value (EpiSC-derived OPCs [1]; 2 μM, HCl) is reported as 34.10%, the “cell viability (% relative to DMS0)” value (EpiSC-derived OPCs [1]; 2 μM, HCl) is reported as 147.64% and the fold induction at 2 µM (EpiSC-derived OPCs [1]; [3]) is reported as 4.68.

`OC(Cn1cncn1)(Cn1cncn1)c1ccc(F)cc1F` [fluconazole, Fluconazole] was tested, and the “inhibition of mammalian CYP51 in vitro” value (rat CYP51) was “did not inhibit mammalian CYP51 in vitro”.

`FC(F)(F)c1ccc(/C=C/c2nc(COc3ccc(CCCCn4ccnn4)cc3)co2)cc1` [Mubritinib (TAK 165), Mubritinib] was tested, and the “cell viability (% relative to DMS0)” value (EpiSC-derived OPCs [1]; 2 μM) was 142.71%, the “% 0ligos” value (EpiSC-derived OPCs [1]; 2 μM) was 31.45% and the fold induction at 2 µM (EpiSC-derived OPCs [1]; [3]) was 3.95.

For `Clc1ccc(C(Cn2ccnc2)OCc2csc3c(Cl)cccc23)c(Cl)c1` (centres unmarked) [Sertaconazole nitrate], the “cell viability (% relative to DMS0)” value (EpiSC-derived OPCs [1]; 2 μM) was 134.49%, the “% 0ligos” value (EpiSC-derived OPCs [1]; 2 μM) was 39.38% and the fold induction at 2 µM (EpiSC-derived OPCs [1]; [3]) was 5.23.

In the case of `Cl.O[Si](CCCN1CCCCC1)(c1ccc(F)cc1)C1CCCCC1` (centres unmarked) [Hexahydro-sila-difenidol hydrochloride, p-fluoro analog], the “% 0ligos” value (EpiSC-derived OPCs [1]; 2 μM) is reported as 26.76% and the “fold-change in % MBP + oligodendrocytes” value (EpiSC-derived OPCs [1]; [3]) is reported as 3.49.
